“And” between values parts separate entries of the source, which are not always exact repeats. Equal values may be shown once. “Also recorded” adds a separate entry of the source. Read-outs that look alike come from different tables or passages of the source.
Columns and labels:
[1] = test system: MCF-7 breast cancer cells; assay: MTT cytotoxicity assay, MCF-7 breast cancer cells; format: cell-based, human; conditions: 48 h, read-out: IC50, growth inhibition, MCF-7
Description: (§1) MCF-7 and MDA-MB-231 breast cancer cells were obtained from the American Type Culture Collection (ATCC) and were routinely grown in Dulbecco's modified Eagle's medium (DMEM, Gibco) containing 10% fetal bovine serum (FBS, Bio-Whittaker), 1% L-glutamine, 1% sodium pyruvate, 50 U/mL penicillin and 50 μg/mL streptomycin. SK-Br3 breast cancer cells were obtained from Eucellbank (Universidad de Barcelona, Spain) and were passaged in McCoy's 5 A medium containing 10% FBS, 1% L-glutamine, 1% sodium pyruvate, 50 U/mL penicillin and 50 μg/mL streptomycin. Non-malignant fibroblasts N-1 were obtained from Eucellbank (Universidad de Barcelona, Spain) and were passaged in DMEM medium containing 10% FBS, 1% L-glutamine, 1% sodium pyruvate, 50 U/mL penicillin and 50 μg/mL streptomycin. The cells remained free of Mycoplasma and were propagated in adherent culture according to established protocols. Cells were maintained at 37° C. in a humidified atmosphere of 95% air and 5% CO2.
(§2) Drug sensitivity was determined using a standard colorimetric MTT (3-4,5-dimethylthiazol-2-yl-2,5-diphenyltetrazolium bromide) assay. Briefly, cells were plated out at a density of 7×10^3 cells/100 μL/well in 96-well microtitre plates and allowed an overnight period for attachment. Then the medium was removed and fresh medium along with various concentrations of the tested compound were added to the cultures for a period of 48 h. Following the treatment, the cells were fed with drug-free medium (100 μL/well) and 10 μL of MTT solution (5 mg/mL; Sigma, St. Louis, Mo.), and the incubation was prolonged for 3 h at 37° C. After carefully removing the supernatants, the MTT-formazan crystals formed by metabolically viable cells were dissolved in dimethyl sulphoxide (100 μL/well) and the absorbance was measured at 570 nm in a multi-well plate reader (Model Anthos Labtec 2010 1.7 reader).

[2] = test system: MDA-MB-231 breast cancer cells; assay: MTT cytotoxicity assay, MDA-MB-231 breast cancer cells; format: cell-based, human; conditions: MDA-MB-231 cells, 48 h, read-out: IC50, growth inhibition, MDA-MB-231
Description: as §1, §2

[3] = test system: SK-Br3 breast cancer cells; assay: MTT cytotoxicity assay, SK-Br3 breast cancer cells; format: cell-based, human; conditions: MTT, 48 h, read-out: IC50, growth inhibition, SK-Br3
Description: as §1, §2

[4] = test system: cancer cells overexpressing FASN; conditions: cited from earlier work
rat CPT-1 = target: T1, rat CPT-1 (Rattus norvegicus, UniProt Q63704); assay: Carnitine palmitoyltransferase 1 (CPT-1) assay, yeast mitochondria; format: biochemical; design: % CPT-1 activity: concentration or dose not given beside the values; conditions: for % CPT-1 activity: % of DMSO control, mitochondria of P. pastoris expressing rat CPT-1
T1 construct: made in house; host or cells: Pichia pastoris GS115 (isolated intact mitochondria)
T1 sequence (Q63704 1-772): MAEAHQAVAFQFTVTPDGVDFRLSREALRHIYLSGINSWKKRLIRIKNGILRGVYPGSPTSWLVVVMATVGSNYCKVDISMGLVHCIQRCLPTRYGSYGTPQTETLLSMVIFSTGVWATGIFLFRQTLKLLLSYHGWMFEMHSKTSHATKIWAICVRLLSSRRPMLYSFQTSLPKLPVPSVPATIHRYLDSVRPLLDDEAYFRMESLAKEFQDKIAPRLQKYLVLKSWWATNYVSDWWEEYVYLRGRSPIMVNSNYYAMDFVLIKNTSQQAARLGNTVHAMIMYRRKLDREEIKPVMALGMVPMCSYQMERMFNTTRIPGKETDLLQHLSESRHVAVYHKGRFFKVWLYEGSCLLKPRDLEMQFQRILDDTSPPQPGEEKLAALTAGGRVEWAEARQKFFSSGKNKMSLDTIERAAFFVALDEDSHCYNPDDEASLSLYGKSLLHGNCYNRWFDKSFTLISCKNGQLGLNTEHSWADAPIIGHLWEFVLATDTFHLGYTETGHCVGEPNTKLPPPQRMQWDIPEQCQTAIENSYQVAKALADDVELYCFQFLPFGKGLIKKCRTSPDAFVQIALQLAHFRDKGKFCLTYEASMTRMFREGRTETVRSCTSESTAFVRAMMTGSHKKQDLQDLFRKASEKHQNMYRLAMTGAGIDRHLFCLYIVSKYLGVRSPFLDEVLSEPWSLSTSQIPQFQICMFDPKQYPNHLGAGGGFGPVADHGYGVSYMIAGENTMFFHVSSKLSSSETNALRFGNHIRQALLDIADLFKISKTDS
Excerpt: The expression plasmid pRCPT-Iβ/pHW010 (provided by Gebre Woldegiorgis, Beaverton, Oreg. Published in Woldegiorgis G. et al. Biochem. Biophys. Res. Commun. 2004, 325, 660-4.) was linearized in the GAP gene promoter by digestion with AvrII and integrated into the GAPp locus of P. pastoris GS115 by electroporation. Histidine prototrophic transformants were selected on YND plates and grown on YND medium. Mitochondria were isolated by disrupting the yeast cells with glass beads as previously described.
CPT activity was assayed by the forward exchange method using L-[^3H] carnitine as previously described (Nicot, C. et al., Biochem. Biophys. Res. Comm. 2004, 325, 2745-7). In a total volume of 0.5 mL, the standard enzyme assay mixture contained 0.2 mM L-[^3H]carnitine (˜5000 dpm/nmol), 80 μM palmitoyl-CoA, 20 mM HEPES (pH 7.0), 1% fatty acid-free albumin, and 40-75 mM KCl, with or without malonyl-CoA as indicated. Reactions were initiated by addition of isolated intact yeast mitochondria. The reaction was linear up to 4 min, and all incubations were done at 30° C. for 3 min. Reactions were stopped by addition of 6% perchloric acid and were then centrifuged at 2000 rpm for 7 min. The resulting pellet was suspended in water, and the product [^3H]palmitoylcarnitine was extracted with butanol at low pH. After centrifugation at 2000 rpm for 2 min, an aliquot of the butanol phase was transferred to a vial for radioactive counting.

FASN = target: T2, FASN (Homo sapiens, UniProt P49327); assay: Fatty acid synthase activity assay in SK-Br3 cells (NADPH oxidation, particle-free supernatants); format: cell-based; design: FASN activity, % of control cells / FASN activity reduced to / reduction of FASN activity: concentration or dose not given beside the values; conditions: for inhibition of FASN activity (in words): SK-Br3 cells treated 6, 12 and 24 hours; for FASN activity, % of control cells: SK-Br3 cells, 24 h exposure
T2 construct: endogenous in cells; host or cells: SK-Br3 breast cancer cells
T2 sequence (P49327 whole entry): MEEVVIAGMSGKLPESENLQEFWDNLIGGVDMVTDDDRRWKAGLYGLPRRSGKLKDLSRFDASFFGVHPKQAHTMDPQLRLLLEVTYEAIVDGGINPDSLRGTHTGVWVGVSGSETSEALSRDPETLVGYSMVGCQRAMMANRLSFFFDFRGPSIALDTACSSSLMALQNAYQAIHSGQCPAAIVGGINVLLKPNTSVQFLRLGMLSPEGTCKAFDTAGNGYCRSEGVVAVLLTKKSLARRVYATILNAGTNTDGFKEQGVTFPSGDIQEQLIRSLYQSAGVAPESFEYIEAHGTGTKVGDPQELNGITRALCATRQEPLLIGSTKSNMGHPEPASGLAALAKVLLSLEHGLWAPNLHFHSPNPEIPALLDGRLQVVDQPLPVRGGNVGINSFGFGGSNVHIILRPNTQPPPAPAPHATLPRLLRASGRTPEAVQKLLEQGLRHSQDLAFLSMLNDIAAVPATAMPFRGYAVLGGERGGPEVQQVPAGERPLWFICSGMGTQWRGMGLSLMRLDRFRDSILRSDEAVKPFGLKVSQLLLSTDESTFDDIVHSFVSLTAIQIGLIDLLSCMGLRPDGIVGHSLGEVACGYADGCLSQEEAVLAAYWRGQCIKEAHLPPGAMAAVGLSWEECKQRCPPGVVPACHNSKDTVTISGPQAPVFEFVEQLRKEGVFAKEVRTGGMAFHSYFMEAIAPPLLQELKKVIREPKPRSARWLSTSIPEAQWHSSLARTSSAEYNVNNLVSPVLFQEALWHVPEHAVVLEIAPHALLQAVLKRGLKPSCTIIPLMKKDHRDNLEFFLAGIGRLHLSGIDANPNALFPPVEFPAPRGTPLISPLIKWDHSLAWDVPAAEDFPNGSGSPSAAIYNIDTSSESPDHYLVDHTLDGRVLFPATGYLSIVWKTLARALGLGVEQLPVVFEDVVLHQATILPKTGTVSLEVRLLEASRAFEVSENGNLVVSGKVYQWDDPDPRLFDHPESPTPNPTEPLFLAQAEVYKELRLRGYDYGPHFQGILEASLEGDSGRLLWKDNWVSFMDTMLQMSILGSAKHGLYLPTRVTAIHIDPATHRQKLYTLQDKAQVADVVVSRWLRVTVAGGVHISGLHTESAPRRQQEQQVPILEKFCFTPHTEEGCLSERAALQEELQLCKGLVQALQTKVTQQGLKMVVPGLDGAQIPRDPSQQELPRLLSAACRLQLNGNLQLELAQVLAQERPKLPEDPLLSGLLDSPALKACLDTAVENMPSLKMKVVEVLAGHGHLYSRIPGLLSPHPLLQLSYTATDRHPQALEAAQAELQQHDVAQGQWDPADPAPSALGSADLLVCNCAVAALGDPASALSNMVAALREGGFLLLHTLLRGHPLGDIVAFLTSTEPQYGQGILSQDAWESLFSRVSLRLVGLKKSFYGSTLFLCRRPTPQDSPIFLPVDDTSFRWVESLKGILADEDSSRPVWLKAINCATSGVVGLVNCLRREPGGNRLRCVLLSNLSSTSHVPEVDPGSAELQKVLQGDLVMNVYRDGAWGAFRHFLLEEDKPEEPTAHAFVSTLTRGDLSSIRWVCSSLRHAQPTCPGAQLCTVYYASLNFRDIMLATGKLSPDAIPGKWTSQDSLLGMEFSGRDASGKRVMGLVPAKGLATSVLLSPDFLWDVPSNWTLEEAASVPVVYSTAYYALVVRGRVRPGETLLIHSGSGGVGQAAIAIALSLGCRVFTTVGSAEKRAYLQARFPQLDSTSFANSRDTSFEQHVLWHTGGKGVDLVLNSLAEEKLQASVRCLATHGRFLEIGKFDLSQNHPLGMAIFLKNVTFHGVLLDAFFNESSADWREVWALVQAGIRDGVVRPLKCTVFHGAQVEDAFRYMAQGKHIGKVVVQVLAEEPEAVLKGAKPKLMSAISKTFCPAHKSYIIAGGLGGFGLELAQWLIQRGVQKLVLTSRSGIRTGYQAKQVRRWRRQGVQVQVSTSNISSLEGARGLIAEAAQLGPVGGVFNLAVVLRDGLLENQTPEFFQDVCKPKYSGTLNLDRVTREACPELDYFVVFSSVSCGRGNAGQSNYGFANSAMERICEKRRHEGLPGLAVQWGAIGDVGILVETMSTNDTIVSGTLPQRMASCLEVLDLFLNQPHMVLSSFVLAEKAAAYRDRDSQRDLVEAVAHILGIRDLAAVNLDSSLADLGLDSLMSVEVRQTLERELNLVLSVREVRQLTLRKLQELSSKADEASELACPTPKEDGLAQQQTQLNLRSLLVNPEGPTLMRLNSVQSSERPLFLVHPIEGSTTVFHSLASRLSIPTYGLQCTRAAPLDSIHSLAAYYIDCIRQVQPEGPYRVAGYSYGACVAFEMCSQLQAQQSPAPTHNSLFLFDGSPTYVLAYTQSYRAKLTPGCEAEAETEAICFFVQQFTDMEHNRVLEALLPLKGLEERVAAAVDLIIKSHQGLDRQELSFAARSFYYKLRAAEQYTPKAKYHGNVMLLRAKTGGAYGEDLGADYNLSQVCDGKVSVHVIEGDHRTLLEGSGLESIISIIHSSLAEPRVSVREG
Description: FASN activity of compounds a, b, e, f, h, i, k, m and q was assayed in particle-free supernatants by recording spectrophotometrically at 37° C. (Lambda Bio 20, Perkin Elmer, EUA; using UV Kinlab 2.80.02 software) the decrease of A340nm due to the oxidation of NADPH, as we previously described. After 6, 12, 24 h of exposure to the tested compound, the cells were harvested by treatment with trypsin-EDTA solution, pelleted by centrifugation, washed twice and resuspended in cold PBS. The cells were sonicated during 30 min at 4° C. (PSelecta ultrasons) and centrifuged for 15 min at 4° C. to keep supernatants particle-free. A sample was taken to measure the protein content by a BioRad assay (Bio-Rad Laboratories). One-hundred and twenty micrograms of protein were pre-incubated during 15 min at 37° C. in 0.2 M of potassium phosphate buffer, pH 7.0, for temperature equilibration. The sample was then added to the reaction mixture: 200 mM potassium phosphate buffer, pH 7.0, 1 mM EDTA (Sigma), 1 mM dithiothreitol (Sigma), 30 μM acetyl-CoA (Sigma), 0.24 mM NADPH (Sigma), in 0.3 mL reaction volume were monitored at 340 nm for 3 min to measure the background NADPH oxidation. After the addition of 50 μM of malonyl-CoA (Sigma), the reaction was assayed for additional 10 min to determine FASN-dependent oxidation of NADPH. Rates were corrected for the background rate of NADPH oxidation in the presence of acetyl-CoA. FASN activity was expressed in nmol NADPH oxidized min^−1 mg protein^−1.

[5] = rats, oral dose of 56 mg of EGCG; cited from earlier work
[6] = test system: Non-malignant fibroblasts N-1; assay: MTT cytotoxicity assay, non-malignant fibroblasts N-1; format: cell-based; conditions: for IC50: non-malignant fibroblasts, MTT, 48 h, read-out: IC50, growth inhibition, Fibroblasts; for effects in cell death / morphology changes in non-malignant cells: up to doses three-fold their cytotoxic IC50 value in tumoral cells
Description: as §1, §2

[7] = within 24 h, mice models; cited from earlier work
[8] = Weight loss in vivo (data not shown)
[9] = Homo sapiens, MCF7, MCF-7 cells

melting point [°C] | stimulation of CPT-1 activity (in words) (rat CPT-1) | Structure (SMILES) | IC50 [1, 9] [µM] | IC50 ([2]; Homo sapiens) [µM] | IC50 ([3]; Homo sapiens, SK-BR-3, 48 h) [µM] | % CPT-1 activity (rat CPT-1) [%] | inhibition of FASN activity (in words) (FASN) | other results
182 to 183 | did not stimulate CPT-1 activity | O=C(Oc1cc2ccccc2cc1OC(=O)c1cc(O)c(O)c(O)c1)c1cc(O)c(O)c(O)c1 [e, 2,3-bis[(3,4,5-trihydroxybenzoyl)oxy]naphthalene] | 89 ± 28.7 | 136 ± 26.9 | 76.5 ± 9.2 | 87.91 ± 7 | inhibit FASN activity; also recorded: decreased in a time-dependent manner | weight loss in vivo [8]: without inducing weight loss in vivo; FASN activity, % of control cells (FASN): 69%
114 to 116 | did not | O=C(Oc1ccc(OC(=O)c2cc(O)c(O)c(O)c2)c(-c2ccccc2)c1)c1cc(O)c(O)c(O)c1 [o, 2,5-bis[(3,4,5-trihydroxybenzoyl)oxy]-1,1′-biphenyl] | 10 ± 2.8 | 40 ± 2.8 | 17.5 ± 2.6 | 86.80 ± 14 |  | 
167 to 169 |  | O=C(Oc1cc(OC(=O)c2cc(O)cc(O)c2)c2ccccc2c1)c1cc(O)cc(O)c1 [g, 1,3-bis[(3,5-dihydroxybenzoyl)oxy]naphthalene] |  | 121 ± 5.7 | 107 ± 29.7 |  |  | 

Second part, the compound before the results:

Structure (SMILES) | melting point [°C] | stimulation of CPT-1 activity (in words) (rat CPT-1) | IC50 [1, 9] [µM] | IC50 ([2]; Homo sapiens) [µM] | IC50 ([3]; Homo sapiens, SK-BR-3, 48 h) [µM] | % CPT-1 activity (rat CPT-1) [%] | inhibition of FASN activity (in words) (FASN) | other results
O=C(Oc1cccc(OC(=O)c2cc(O)c(O)c(O)c2)c1)c1cc(O)c(O)c(O)c1 [b, 1,3-bis[(3,4,5-trihydroxybenzoyl)oxy]benzene] | 194 to 195 |  | 162 ± 17.8 | 173 ± 40.2 | 42 ± 7.1 |  |  | 
O=C(O[C@@H]1Cc2c(O)cc(O)cc2O[C@@H]1c1cc(O)c(O)c(O)c1)c1cc(O)c(O)c(O)c1 [EGCG, (−)-epigallocatechin-3-gallate, reference compound] |  |  |  |  |  | 81 ± 4 | inhibit FASN activity; also recorded: decreased in a time-dependent manner | IC50 ([1]; MCF-7 cells): 205 ± 7.1 µM; IC50 [2]: 197 ± 15.3 µM; inhibitory ability lower than that of C75 and cerulenin [4]: 4 fold; IC50 [3]: 150 µM and 149 µM; EGCG absorbed [5]: 0.012%; IC50 [6]: 125 µM; effects in cell death / morphology changes in non-malignant cells [6]: massive cell death
C=C1C(=O)O[C@H](CCCCCCCC)[C@H]1C(=O)O [Compound C75, (2R,3S)-4-methylene-2-octyl-5-oxotetrahydrofuran-3-carboxylic acid, reference compound] |  | stimulates CPT-1 activity |  |  |  |  |  | loss of body mass [7]: up to 12%
O=C(Oc1ccccc1OC(=O)c1cc(O)c(O)c(O)c1)c1cc(O)c(O)c(O)c1 [a, 1,2-bis[(3,4,5-trihydroxybenzoyl)oxy]benzene] | 210 |  | 165 ± 8.2 | 163 ± 5.2 | 126 ± 5.2 |  |  | 
O=C(Oc1ccc(-c2ccc(OC(=O)c3cc(O)c(O)c(O)c3)cc2)cc1)c1cc(O)c(O)c(O)c1 [q, 4,4′-bis[(3,4,5-trihydroxybenzoyl)oxy]-1,1′-biphenyl] |  | did not stimulate CPT-1 activity | 2.5 ± 0.1 | 5.2 ± 3.5 | 4 ± 1 | 84.38 ± 4 | inhibit FASN activity; also recorded: decreased in a time-dependent manner | weight loss in vivo [8]: without inducing weight loss in vivo; IC50 [3]: 4.4 ± 1.4 µM; FASN activity, % of control cells (FASN): 20%; reduction of FASN activity (FASN; after 24 h of cell exposure): 50%; IC50 ([6]; Fibroblast): 13 ± 4 µM; effect on non-malignant cells / normal fibroblasts ([6]; at concentrations similar to IC50): not affected; effects in cell death / morphology changes in non-malignant cells [6]: No significant effects
